Laboratory results published in the RepoRT retention time repository (doi:10.1021/acs.analchem.2c02893).

Assay: RP, Thermo Scientific Acclaim RSLC 120 C18, 100 × 2.1 mm, 2.2 µm, 30 °C, 0.2 mL/min, estimated dead time 1.1 min; A: 90% water + 10% methanol + 0.01% formic acid + 5 mM ammonium formate, pH 3.61; B: methanol + 0.01% formic acid + 5 mM ammonium formate, pH 3.61; gradient (min/%B) 0/1 1/1 2/39 13/99.9 15/99.9 15.1/1 20.1/1
Conditions: stereoisomer not certain

Row | LC retention time | Structure (SMILES)
1 | 7.24 min | CC(Cc1ccccc1)N1C=C(NC(=O)N=C2C=CC(=O)C=C2)ON1 (configuration not stated) [Mesocarb-P-Hydroxy]
2 | 12.4 min | CCCCCCCCc1ccc(OCCO)cc1 [Octylphenol monoethoxylates (OP1EO)_NH4 adduct]
3 | 5.06 min | CCN1CCCC1CNC(=O)c1c(OC)ccc(Br)c1OC (configuration not stated) [Remoxipride]
4 | 6.21 min | CC(=O)Oc1cc(C(C)C)c(OCCN(C)C)cc1C [Moxisylyte]
5 | 2.62 min | S=c1nc[nH]c2nc[nH]c12 [6-Mercaptopurine]
6 | 3.86 min | CCS(=O)(=O)CCn1c([N+](=O)[O-])cnc1C [Tinidazole]
7 | 4.48 min | O=S(=O)(O)c1nc2ccccc2s1 [2-Benzothiazolesulfonic acid]
8 | 9.46 min | C#CC1(O)CCC2C3CCc4cc(O)ccc4C3CCC21C (configuration not stated) [EE2 - Ethinyl estradiol]
9 | 3.91 min | CC(C)(C)NCC(O)COc1cccc2c1CCC(=O)N2 (configuration not stated) [Carteolol]
10 | 5.08 min | COC(=O)C1C(O)CCC2CN3CCc4c([nH]c5ccccc45)C3CC21 (configuration not stated) [Yohimbine]
11 | 8.56 min | CCOC(=O)C(CCc1ccccc1)NC(C)C(=O)N1C(C(=O)O)CC2CCCC21 (configuration not stated) [Ramipril]
12 | 6.66 min | Cc1ccc(C(=CCN2CCCC2)c2cccc(C=CC(=O)O)n2)cc1 [Acrivastine]
13 | 9.24 min | CC=CC(=O)N(CC)c1ccccc1C [Crotamiton]
14 | 6.77 min | COc1cc(OC)nc(NC(=O)NS(=O)(=O)N(C)S(C)(=O)=O)n1 [Amidosulfuron]
15 | 12.2 min | Cc1cccc(N(C)C(=S)Oc2ccc3ccccc3c2)c1 [Tolnaftate]
16 | 7.89 min | CCc1cccc(C)c1N1C(=O)COCC1C (configuration not stated) [Metolachlor-morpholinon]
17 | 5.78 min | O=C1CC2(CCCC2)CC(=O)N1CCCCN1CCN(c2ncccn2)CC1 [Buspirone]
18 | 9.1 min | CCC(=C(c1ccc(O)cc1)c1ccc(OCCN(C)C)cc1)c1ccccc1 [4-Hydroxytamoxifen]
19 | 9.86 min | O=C(O)c1cccnc1Nc1cccc(C(F)(F)F)c1 [Niflumic acid]
20 | 6.59 min | Cc1ccc(C2(O)CCN(CCCC(=O)c3ccc(F)cc3)CC2)cc1 [Moperone]
21 | 8.34 min | CN(C)c1ccc(C(=C2C=CC(=[N+](C)C)C=C2)c2ccccc2)cc1 [Malachite green (MG)]
22 | 5.39 min | CCCN1CCCCC1C(=O)Nc1c(C)cccc1C (configuration not stated) [Ropivacaine]
23 | 6.89 min | S=c1[nH]c2ccccc2s1 [Benzothiazole-Mercapto]
24 | 9.23 min | CCC1OC(=O)C(C)C(OC2CC(C)(OC)C(O)C(C)O2)C(C)C(OC2OC(C)CC(N(C)C)C2O)C(C)(O)CC(C)C(=NOCOCCOC)C(C)C(O)C1(C)O (configuration not stated) [Roxithromycin]
25 | 3.56 min | Cn1c(=O)c2c(ncn2CCCNCC(O)c2cc(O)cc(O)c2)n(C)c1=O (configuration not stated) [Reproterol]

Row | LC retention time | Structure (SMILES)
26 | 7.09 min | NCC(O)COc1ccccc1C(=O)CCc1ccccc1 (configuration not stated) [Propafenone-N-Desmethyl]
27 | 7 min | Cc1cccc(C)c1N(C(=O)CCl)C1CCOC1=O (configuration not stated) [Ofurace]
28 | 11.2 min | CC(=O)OCC(=O)C12OC3(CCCC3)OC1CC1C3CCC4=CC(=O)C=CC4(C)C3(F)C(O)CC12C (configuration not stated) [Amcinonide]
29 | 7.03 min | CNCCC=C1c2ccccc2COc2ccccc21 [Doxepin-Nor]
30 | 3.97 min | CN=C(NC)NCc1ccccc1 [Bethanidine]
31 | 2.02 min | CN(C)S(N)(=O)=O [N,N-Dimethylsulfamide]
32 | 12.6 min | CC(C)OC(=O)C(C)(C)Oc1ccc(C(=O)c2ccc(Cl)cc2)cc1 [Fenofibrate]
33 | 10.4 min | O=C(O)Cc1cn(-c2ccccc2)nc1-c1ccc(Cl)cc1 [Lonazolac]
34 | 3.28 min | c1ccc(CC2=NCCN2)cc1 [Tolazoline]
35 | 5.54 min | Cc1cccc(C)c1N(Cn1cccn1)C(=O)CS(C)=O (configuration not stated) [Metazachlor BH 479-11]
36 | 12.2 min | CCCCCCCCCCCCCC[N+](C)(C)Cc1ccccc1 [Benzyldimethyltetradecylammonium]
37 | 9.01 min | CCCc1nn(C)c2c(=O)[nH]c(-c3cc(S(=O)(=O)N4CCN(C5CCCC5)CC4)ccc3OCC)nc12 [Cyclopentynafil]
38 | 8.11 min | Cc1cnc(C(=O)NCCc2ccc(S(=O)(=O)NC(=O)NC3CCCCC3)cc2)cn1 [Glipizide]
39 | 10.7 min | CCC(=O)OC1(C(=O)SCF)C(C)CC2C3CC(F)C4=CC(=O)C=CC4(C)C3(F)C(O)CC21C (configuration not stated) [Fluticasone propionate]
40 | 11 min | CCOC(=O)C(C)(C)Oc1ccc(Cl)cc1 [Clofibrate]
41 | 4.63 min | Cc1cc(=O)n(-c2ccccc2)n1C [Phenazone]
42 | 11.1 min | CC#CC1(O)CCC2C3CCC4=CC(=O)CCC4=C3C(c3ccc(N(C)C)cc3)CC21C (configuration not stated) [Mifepristone]
43 | 11.4 min | O=Cc1ccccc1Nc1ccccc1Cl [2-(2-(Chlorophenyl)amino)benzaldehyde]
44 | 8.99 min | COc1ccc2cc(C(C)C(=O)O)ccc2c1 (configuration not stated) [Naproxen]
45 | 4.88 min | CC(C)(C)NCC(O)COc1nsnc1N1CCOCC1 (configuration not stated) [Timolol]
46 | 5.44 min | O=S(=O)(O)c1ccc2ccccc2c1 [2-Naphthalin sulfonic acid]
47 | 3.93 min | CC(C)NCC(O)COc1ccc(CC(=O)O)cc1 (configuration not stated) [Atenolol acid (Metoprolol acid)]
48 | 2.19 min | O=c1[nH]cnc2[nH]ncc12 [Allopurinol]
49 | 4.86 min | COc1cc(C(=O)NCc2ccc(OCCN(C)C)cc2)cc(OC)c1OC [Trimethobenzamide]
50 | 6.92 min | CCCC1CC(C(=O)NC(C(C)Cl)C2OC(SC)C(O)C(O)C2O)N(C)C1 (configuration not stated) [Clindamycin]

Row | Structure (SMILES) | LC retention time
51 | CC(N)Cc1cccc(F)c1 (configuration not stated) [Amphetamine (3-F-)] | 4.39 min
52 | CC1(C)C(C(=O)OC(C#N)c2cccc(Oc3ccccc3)c2)C1(C)C (configuration not stated) [Fenpropathrin] | 12.9 min
53 | CNC(=O)ON=C(CSC)C(C)(C)C [Thiofanox] | 7.8 min
54 | OCc1nnc2n1-c1ccc(Cl)cc1C(c1ccccc1Cl)=NC2 [Triazolam-1-Hydroxymethyl (alpha-Hydroxy-Triazolam)] | 7.65 min
55 | COc1ccc(C(=O)c2cn(CCCCCO)c3ccccc23)cc1 [RCS-4-M-5-OH-Pentyl] | 9.18 min
56 | COc1ccc(OC)c(CCN)c1 [2C-H] | 4.43 min
57 | CN(C)C1C(=O)C(C(N)=O)=C(O)C2(O)C(=O)C3=C(O)c4c(O)cccc4C(C)(O)C3C(O)C12 (configuration not stated) [Oxytetracycline] | 4.6 min
58 | CC(C)(C)C(O)(CCc1ccc(Cl)cc1)Cn1cncn1 (configuration not stated) [Tebuconazole] | 10.9 min
59 | Cc1cc(Cl)ccc1OCCCC(=O)O [MCPB] | 10.1 min
60 | CNC(C)C(O)c1ccc(O)cc1 (configuration not stated) [Synphrine-Methyl] | 2.05 min
61 | CN1CCN=C(c2ccccc2)c2cc(Cl)ccc21 [Medazepam] | 10.2 min
62 | CC(C)(C)C(NC(=O)c1cn(CC2CCCCC2)c2ccccc12)C(N)=O (configuration not stated) [ADB-CHMICA] | 11.7 min
63 | CC1NCCOC1c1ccccc1 (configuration not stated) [Phenmetrazine] | 4.14 min
64 | CNCC(O)c1ccc(O)cc1 (configuration not stated) [Synephrine] | 1.6 min
65 | CCCSP(=O)(OCC)Oc1ccc(Br)cc1Cl (configuration not stated) [Profenophos] | 12 min
66 | CCCc1cc(OC)c(CCN)cc1OC [2 C-P] | 7.46 min
67 | CC(C)Nc1nc(Cl)nc(NC(C)C)n1 [Propazine] | 9.16 min
68 | CCC1(c2cccc(O)c2)CCCCN(C)C1 (configuration not stated) [Meptazinol] | 4.74 min
69 | CC(=O)OC1CN2CCC1CC2 (configuration not stated) [Aceclidine] | 4.87 min

Row | Structure (SMILES) | LC retention time
70 | CCCCCn1cc(C(=O)N2CCN(C)CC2)c2ccccc21 [MEPIRAPIM] | 7.75 min
71 | COP(=S)(OC)SCC(=O)N(c1ccc(Cl)cc1)C(C)C [Anilofos] | 10.8 min
72 | CCCCCCCCOC(=O)c1ccccc1C(=O)OCCCCCCCC [Phthalate-Di-n-octyl] | 15.3 min
73 | NCC(O)c1ccccc1 (configuration not stated) [Apophedrin  (Phenylethanolamine)] | 2.84 min
74 | CCOP(=S)(OCC)Oc1cc(Cl)c(Br)cc1Cl [Bromophos-ethyl] | 13.5 min
75 | CC1(C)C(C=C(Cl)Cl)C1C(=O)OC(C#N)c1ccc(F)c(Oc2ccccc2)c1 (configuration not stated) [Cyfluthrin (Baythroid)] | 13 min
76 | COc1cc(CCNCc2ccccc2OC)c(OC)cc1Cl [2-C-C-NBoMe] | 7.34 min
77 | COC(=O)CSP(=S)(OC)OC | 7.16 min
78 | CCC(Cc1ccc2c(c1)OCO2)NC (configuration not stated) [MBDB] | 4.66 min
79 | CCC(c1cccc(O)c1)C(C)CNC (configuration not stated) [Tapentadol-N-Desmethyl] | 5.14 min
80 | COc1ccc(C(=O)c2c(C)n(CCN3CCOCC3)c3ccccc23)cc1 [WIN-48-098] | 9.55 min
81 | CC(N)Cc1ccc(F)cc1 (configuration not stated) [Amphetamine (4-F-)] | 4.39 min
82 | CCCCn1cc(C(=O)c2cccc3ccccc23)c2cccc(O)c21 [JWH-073-M-7-OH-Ind] | 11.2 min
83 | N#CC(CCc1ccc(Cl)cc1)(Cn1cncn1)c1ccccc1 (configuration not stated) [Fenbuconazole] | 10.4 min
84 | CON(C)C(=O)Nc1ccc(Br)cc1 [Metobromuron] | 8.15 min
85 | CC12CC1(C)C(=O)N(c1cc(Cl)cc(Cl)c1)C2=O (configuration not stated) [Procymidone] | 10.2 min
86 | CCOP(=S)(OCC)SCn1nnc2ccccc2c1=O [Azinphos-ethyl] | 10.2 min
87 | CNC(=O)ON=C(C)C(C)S(C)(=O)=O (configuration not stated) [Butoxycarboxim] | 3.66 min
